Tests used:
UACC-257 = assay: Growth inhibition of human UACC257 cells after 48 hrs by sulforhodamine B assay; assay type: functional; settings: UACC-257, 48 h
TK-10 = assay: Growth inhibition of human TK10 cells after 48 hrs by sulforhodamine B assay; assay type: functional; settings: TK-10, 48 h
K562 = assay: Growth inhibition of human K562 cells assessed as cell growth at 10 uM after 48 hrs by sulforhodamine B assay; assay type: functional; settings: K562, 48 h, read-out: Activity
CCRF-CEM [1] = assay: Growth inhibition of human CCRF-CEM cells after 48 hrs by sulforhodamine B assay; assay type: functional
T47D = assay: Growth inhibition of human T47D cells assessed as cell growth at 10 uM after 48 hrs by sulforhodamine B assay; assay type: functional; settings: read-out: Activity
NCI-H226 [2] = assay: Growth inhibition of human NCI-H226 cells after 48 hrs by sulforhodamine B assay; assay type: functional; settings: NCI-H226, 48 h
A498 [3] = assay: Growth inhibition of human A498 cells after 48 hrs by sulforhodamine B assay; assay type: functional, cell-based; settings: A498, 48 h
[4] = Growth inhibition of human HCC2998 cells after 48 hrs by sulforhodamine B assay; assay type: functional; settings: HCC 2998, 48 h
U-251 = assay: Growth inhibition of human U251 cells assessed as cell growth at 10 uM after 48 hrs by sulforhodamine B assay; assay type: functional; settings: U-251, 48 h, read-out: Activity
MDA-MB-435 = assay: Growth inhibition of human MDA-MB-435 cells after 48 hrs by sulforhodamine B assay; assay type: functional, cell-based; settings: MDA-MB-435, 48 h
MCF7 = assay: Growth inhibition of human MCF7 cells assessed as cell growth at 10 uM after 48 hrs by sulforhodamine B assay; assay type: functional; settings: MCF7, 48 h, read-out: Activity
RPMI-8226 = assay: Growth inhibition of human RPMI8226 cells after 48 hrs by sulforhodamine B assay; assay type: functional, cell-based; settings: RPMI-8226, 48 h
A498 [5] = assay: Growth inhibition of human A498 cells assessed as cell growth at 10 uM after 48 hrs by sulforhodamine B assay; assay type: functional; settings: A498, 48 h, read-out: Activity
KM12 = assay: Growth inhibition of human KM12 cells after 48 hrs by sulforhodamine B assay; assay type: functional, cell-based; settings: KM12, 48 h
DU-145 = assay: Growth inhibition of human DU145 cells assessed as cell growth at 10 uM after 48 hrs by sulforhodamine B assay; assay type: functional; settings: DU-145, 48 h, read-out: Activity
M14 = assay: Growth inhibition of human M14 cells after 48 hrs by sulforhodamine B assay; assay type: functional; settings: M14, 48 h
MDA-MB-231 = assay: Growth inhibition of human MDA-MB-231 cells assessed as cell growth at 10 uM after 48 hrs by sulforhodamine B assay; assay type: functional; settings: MDA-MB-231, 48 h, read-out: Activity
SK-OV-3 = assay: Growth inhibition of human SKOV3 cells assessed as cell growth at 10 uM after 48 hrs by sulforhodamine B assay; assay type: functional; settings: SK-OV-3, 48 h, read-out: Activity
UACC-62 = assay: Growth inhibition of human UACC62 cells after 48 hrs by sulforhodamine B assay; assay type: functional; settings: UACC-62, 48 h
CCRF-CEM [6] = assay: Growth inhibition of human CCRF-CEM cells assessed as cell growth at 10 uM after 48 hrs by sulforhodamine B assay; assay type: functional; settings: read-out: Activity
UO-31 = assay: Growth inhibition of human UO31 cells after 48 hrs by sulforhodamine B assay; assay type: functional; settings: UO-31, 48 h
SNB-75 = assay: Growth inhibition of human SNB75 cells after 48 hrs by sulforhodamine B assay; assay type: functional; settings: SNB-75, 48 h
SF-268 = assay: Growth inhibition of human SF268 cells after 48 hrs by sulforhodamine B assay; assay type: functional; settings: SF-268, 48 h
HCT-116 = assay: Growth inhibition of human HCT116 cells assessed as cell growth at 10 uM after 48 hrs by sulforhodamine B assay; assay type: functional; settings: HCT-116, 48 h, read-out: Activity
[7] = Growth inhibition of human NCI-ADR-RES cells assessed as cell growth at 10 uM after 48 hrs by sulforhodamine B assay; assay type: functional; settings: read-out: Activity
ACHN = assay: Growth inhibition of human ACHN cells assessed as cell growth at 10 uM after 48 hrs by sulforhodamine B assay; assay type: functional; settings: read-out: Activity
OVCAR-4 = assay: Growth inhibition of human OVCAR4 cells after 48 hrs by sulforhodamine B assay; assay type: functional; settings: OVCAR-4, 48 h
SN12C = assay: Growth inhibition of human SN12C cells after 48 hrs by sulforhodamine B assay; assay type: functional
SR = assay: Growth inhibition of human SR cells after 48 hrs by sulforhodamine B assay; assay type: functional
NCI-H226 [8] = assay: Growth inhibition of human NCI-H226 cells assessed as cell growth at 10 uM after 48 hrs by sulforhodamine B assay; assay type: functional; settings: NCI-H226, 48 h, read-out: Activity
COLO 205 = assay: Growth inhibition of human COLO205 cells assessed as cell growth at 10 uM after 48 hrs by sulforhodamine B assay; assay type: functional; settings: COLO 205, 48 h, read-out: Activity
IGROV-1 = assay: Growth inhibition of human IGROV1 cells assessed as cell growth at 10 uM after 48 hrs by sulforhodamine B assay; assay type: functional; settings: IGROV-1, 48 h, read-out: Activity
Malme-3M = assay: Growth inhibition of human MALME-3M cells assessed as cell growth at 10 uM after 48 hrs by sulforhodamine B assay; assay type: functional; settings: read-out: Activity
SW-620 = assay: Growth inhibition of human SW620 cells after 48 hrs by sulforhodamine B assay; assay type: functional; settings: SW-620, 48 h
CAKI-1 = assay: Growth inhibition of human CAKI-1 cells assessed as cell growth at 10 uM after 48 hrs by sulforhodamine B assay; assay type: functional; settings: CAKI-1, 48 h, read-out: Activity
[9] = read-out: LC50 (the source's name)

## COc1cc(-c2nn(-c3cccc(NC(=O)Nc4ccc(Cl)c(Cl)c4)c3)cc2-c2ccncc2)ccc1Cl
UACC-257
  GI50: 1.04 µM
  TGI: 3.11 µM
UACC-257; [9]
  CC50: > 50 µM
TK-10
  GI50: 1.43 µM
  TGI: 40.9 µM
TK-10; [9]
  CC50: > 50 µM
K562
  growth at 10 µM: 3.63%
CCRF-CEM [1]
  GI50: 1.04 µM
  LC50: > 50 µM
T47D
  growth at 10 µM: 2.98%
NCI-H226 [2]
  GI50: 1.35 µM
  TGI: > 50 µM
NCI-H226 [2]; [9]
  CC50: > 50 µM
A498 [3]
  GI50: 1.14 µM
  IC50: 1.14 µM
  TGI: 4.59 µM
A498 [3]; [9]
  CC50: > 50 µM
[4]
  GI50: 1.56 µM
  TGI: 6.2 µM
[4]; [9]
  CC50: > 50 µM
U-251
  growth at 10 µM: -6.02%
MDA-MB-435
  GI50: 0.938 µM
  IC50: 0.94 µM
  TGI: 2.39 µM
MDA-MB-435; [9]
  CC50: > 50 µM
MCF7
  growth at 10 µM: 1.73%
RPMI-8226
  GI50: 0.388 µM
  IC50: 0.39 µM
  TGI: 3.26 µM
RPMI-8226; [9]
  CC50: > 50 µM
A498 [5]
  growth at 10 µM: -6.82%
KM12
  GI50: 0.811 µM
  IC50: 0.81 µM
  TGI: 2.77 µM
KM12; [9]
  CC50: 49.5 µM
DU-145
  growth at 10 µM: 20%
M14
  GI50: 0.911 µM
  LC50 (concentration killing 50% of cells): 41.2 µM
  TGI: 2.69 µM
MDA-MB-231
  growth at 10 µM: -40.1%
SK-OV-3
  growth at 10 µM: 11.8%
UACC-62
  GI50: 0.773 µM
  LC50 (50% lethal concentration): 4.49 µM
  TGI: 1.86 µM
CCRF-CEM [6]
  growth at 10 µM: -7.9%
UO-31
  GI50: 0.845 µM
  TGI: 4.98 µM
UO-31; [9]
  CC50: > 50 µM
SNB-75
  GI50: 1.05 µM
  LC50 (lethal concentration, 50% net cell kill): > 50 µM
  TGI: 5.17 µM
SF-268
  GI50: 1.51 µM
  TGI: 20.3 µM
SF-268; [9]
  CC50: > 50 µM
HCT-116
  growth at 10 µM: 8.67%
[7]
  growth at 10 µM: 0.32%
ACHN
  growth at 10 µM: 11.5%
OVCAR-4
  GI50: 1.29 µM
  LC50 (concentration killing 50% of cells): > 50 µM
  TGI: > 50 µM
SN12C
  GI50: 1.47 µM
  TGI: > 50 µM
SN12C; [9]
  CC50: > 50 µM
SR
  GI50: 0.932 µM
  TGI: 2.8 µM
SR; [9]
  CC50: > 50 µM
NCI-H226 [8]
  growth at 10 µM: 9.61%
COLO 205
  growth at 10 µM: -80.4%
IGROV-1
  growth at 10 µM: 23.9%
Malme-3M
  growth at 10 µM: -19.9%
SW-620
  GI50: 1.59 µM
  TGI: > 50 µM
SW-620; [9]
  CC50: > 50 µM
CAKI-1
  growth at 10 µM: 16.8%
